Results on 13 compounds are retold here after ChEMBL document CHEMBL1201862, “PubChem BioAssay data set” (2004).

Test systems include A498; NCI-H460; HCT-116; IGROV-1; OVCAR-5; ACHN; Malme-3M; NCI-H23; COLO 205; SK-MEL-5; DMS-114; K562; CAKI-1; SF-268; MDA-MB-231; NCI/ADR-RES; PC-3; T47D; Hs-578T; DU-145.
What all share (assay): NCI-60 cell line screen, 48 h

The structures appear in SMILES notation.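 Tested at 5 concentrations; 48 h exposure; 96-well plates; endpoints linearly interpolated, else capped at highest concentration. Here, GI50 denotes the concentration required for 50% inhibition of growth.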 Calls of active or inactive are those of the source. Rule as the data show it: active = GI50 up to about 1.1 µM and inactive = higher.

On to `[Zn+2][N+]12CCN3CCN4CCN(CC1)[PH]432` (stereo not drawn), for which the GI50 in the assay with A498, with NCI-H460, with HCT-116, with IGROV-1, with OVCAR-5 and in the assay on ACHN was > 100 µM (inactive) throughout. Further, the GI50 in the assay with Malme-3M, in the assay with NCI-H23, in the assay with COLO 205, with SK-MEL-5, in the assay on DMS-114 and with K562 was > 100 µM (inactive) throughout.
In the case of `CCOc1ccc(NC(=O)CCC(=O)NN)cc1`, the GI50 in the assay with NCI-H460, in the assay with OVCAR-5, with ACHN, with Malme-3M, in the assay with NCI-H23 and in the assay on CAKI-1 was > 100 µM (inactive) each time. Besides, the GI50 in the assay on COLO 205, with SK-MEL-5, with DMS-114, with SF-268 and with K562 was > 100 µM (inactive) each time.
On to `COc1ccccc1NC(=O)CC(=O)NNCC(=O)Nc1nnc(-c2ccccc2)o1`, for which the GI50 in the assay on A498, in the assay on HCT-116, in the assay on IGROV-1, in the assay with OVCAR-5, in the assay on ACHN and in the assay on NCI-H23 was > 100 µM (inactive) in each case. Also, the GI50 with CAKI-1, with COLO 205, in the assay with SK-MEL-5, in the assay with DMS-114, with SF-268 and with K562 was > 100 µM (inactive) throughout.
Take `Cc1cc2c(c(C(=O)O)c1C)-c1cccc(Cl)c1C2=O`: the GI50 in the assay with NCI-H460, with IGROV-1, in the assay on OVCAR-5, with ACHN, in the assay with Malme-3M and with NCI-H23 was > 100 µM (inactive) in each case. The GI50 with CAKI-1, with COLO 205, with SK-MEL-5, in the assay on DMS-114, in the assay with SF-268 and with K562 was > 100 µM (inactive) each time.
For `COc1ccc(C(C#N)NNC(=O)Cc2ccccc2)cc1OC` (stereo not drawn), the GI50 with NCI-H460, in the assay with HCT-116, in the assay with IGROV-1, in the assay on OVCAR-5, in the assay on ACHN and in the assay with Malme-3M was > 100 µM (inactive) each time. The GI50 in the assay with NCI-H23, in the assay with CAKI-1, with COLO 205, with SK-MEL-5, with DMS-114 and with SF-268 was > 100 µM (inactive) in each case. Also, in the assay on K562, the GI50 is > 100 µM (inactive).
For `C/C(=N/NC(=S)Nc1ccc(C)cc1)c1ccccn1`, the GI50 was 2.51 µM (inactive) in the assay on A498; < 0.0154 µM (active) in the assay on MDA-MB-231; 0.263 µM (active) in the assay on NCI-H460; < 0.0152 µM (active) in the assay with NCI/ADR-RES; < 0.0153 µM (active) in the assay on PC-3; < 0.0146 µM (active) with HCT-116. For the same compound, the GI50 was < 0.0155 µM (active) with IGROV-1; 0.0493 µM (active) in the assay on OVCAR-5; 0.0515 µM (active) in the assay with ACHN; 0.505 µM (active) in the assay on Malme-3M; < 0.0185 µM (active) with NCI-H23; 0.0968 µM (active) in the assay with CAKI-1. The GI50 in the assay with T47D is 0.049 µM (active); in the assay on COLO 205, < 0.0166 µM (active); in the assay with SK-MEL-5, 0.12 µM (active); with Hs-578T it was 0.859 µM (active); in the assay with DU-145 it was 0.794 µM (active); in the assay on SF-268, 0.114 µM (active). Also, the GI50 in the assay with K562 is < 0.0127 µM (active).
Take `CC1=CC(=O)CC(C)(C)C1(O)/C=C/C(C)=C/C(=O)O` (stereo not drawn): the GI50 in the assay with A498, with MDA-MB-231, with NCI-H460, with NCI/ADR-RES, with PC-3 and in the assay with HCT-116 was > 100 µM (inactive) in each case. Further, the GI50 in the assay on IGROV-1, with OVCAR-5, with ACHN, in the assay on Malme-3M, in the assay on NCI-H23 and in the assay with CAKI-1 was > 100 µM (inactive) throughout. For the same compound, the GI50 in the assay on T47D, in the assay with COLO 205, in the assay on SK-MEL-5, with Hs-578T, in the assay with DU-145 and in the assay on SF-268 was > 100 µM (inactive) each time. Besides, in the assay on K562, the GI50 was > 100 µM (inactive).
As to `O=C(c1cc2ccccc2[nH]1)N1C2CCC1CN(CCOC(c1ccc(F)cc1)c1ccc(F)cc1)CC2` (stereo not drawn), the GI50 is > 100 µM (inactive) in the assay with A498; 9.2 µM (inactive) with MDA-MB-231; 4.48 µM (inactive) with NCI-H460; > 100 µM (inactive) in the assay on NCI/ADR-RES; 2.79 µM (inactive) with PC-3; 5.09 µM (inactive) in the assay on HCT-116. The GI50 with IGROV-1 was 2.26 µM (inactive); with OVCAR-5 it was > 100 µM (inactive); in the assay with ACHN, 95.1 µM (inactive); with Malme-3M, > 100 µM (inactive); in the assay on NCI-H23, 40.1 µM (inactive); in the assay with CAKI-1, 6.81 µM (inactive). Further, the GI50 in the assay on T47D was 5.28 µM (inactive); in the assay on COLO 205 it was 5 µM (inactive); with SK-MEL-5, 5.77 µM (inactive); with Hs-578T, > 100 µM (inactive); in the assay on DU-145, > 100 µM (inactive); with SF-268, 8.28 µM (inactive). Moreover, the GI50 in the assay on K562 is 5.15 µM (inactive).
Regarding `c1cc2nnc1SCCSCCSc1ccc(nn1)SCCSCCS2`, the GI50 is > 100 µM (inactive) with A498; 40.6 µM (inactive) with MDA-MB-231; > 100 µM (inactive) in the assay on NCI-H460; > 100 µM (inactive) in the assay on NCI/ADR-RES; > 100 µM (inactive) with PC-3; > 100 µM (inactive) in the assay on HCT-116. The GI50 with IGROV-1, in the assay with OVCAR-5, in the assay with ACHN, in the assay on Malme-3M, in the assay on NCI-H23 and with CAKI-1 was > 100 µM (inactive) each time. Besides, the GI50 in the assay on T47D, with COLO 205, with SK-MEL-5, with Hs-578T, with DU-145 and in the assay with SF-268 was > 100 µM (inactive) in each case. In the assay on K562, the GI50 was > 100 µM (inactive).
Regarding `O=C(NCCNCCCNC(=O)c1cc(-c2ccccc2)nc2ccccc12)c1cccc(O)c1O`, the GI50 in the assay on A498 is 15.8 µM (inactive); with MDA-MB-231 it was 4.23 µM (inactive); in the assay with NCI-H460, 2.36 µM (inactive); with NCI/ADR-RES, 22.4 µM (inactive); in the assay with PC-3, 5.94 µM (inactive); in the assay on HCT-116 it was 1.47 µM (inactive). The GI50 with IGROV-1 is 7.82 µM (inactive); with OVCAR-5, 2.28 µM (inactive); in the assay on ACHN it was 2.43 µM (inactive); in the assay on Malme-3M it was 3.82 µM (inactive); in the assay with NCI-H23, 6.14 µM (inactive); in the assay on CAKI-1 it was 5.4 µM (inactive). The GI50 with T47D is 3.3 µM (inactive); with COLO 205, 3.18 µM (inactive); in the assay on SK-MEL-5, 1.36 µM (inactive); with Hs-578T, 13.8 µM (inactive); in the assay on DU-145 it was 3.61 µM (inactive); in the assay with SF-268 it was 2.86 µM (inactive). Also, the GI50 in the assay with K562 is 2 µM (inactive).
`CC(C)N1C(C)[C@@H](c2ccccc2)O[P@]1(=O)CC1=CCCCC1` (stereo partly drawn): the GI50 in the assay with A498 is > 100 µM (inactive); with NCI-H460, 87.1 µM (inactive); in the assay on HCT-116, > 100 µM (inactive); with IGROV-1, > 100 µM (inactive); in the assay with OVCAR-5, 88.5 µM (inactive); with ACHN, > 100 µM (inactive). Also, the GI50 is > 100 µM (inactive) in the assay with Malme-3M; 82.8 µM (inactive) in the assay with NCI-H23; 98.4 µM (inactive) in the assay with COLO 205; 45.2 µM (inactive) with SK-MEL-5; 49.5 µM (inactive) with DMS-114; > 100 µM (inactive) in the assay with SF-268. In addition, the GI50 with K562 was 49.3 µM (inactive).
Turning to `CC(C)C1CC(CO)(CNc2nc(N)nc(Cl)c2C=O)C1` (stereo not drawn), the GI50 was 15.1 µM (inactive) with A498; 2.45 µM (inactive) in the assay on MDA-MB-231; 8.22 µM (inactive) in the assay on NCI-H460; 6.03 µM (inactive) with NCI/ADR-RES; 2.1 µM (inactive) in the assay with PC-3; 2.84 µM (inactive) in the assay with HCT-116. Moreover, the GI50 is 1.89 µM (inactive) in the assay with IGROV-1; 17.1 µM (inactive) in the assay on OVCAR-5; 5.35 µM (inactive) in the assay on ACHN; 11.1 µM (inactive) with Malme-3M; 2.22 µM (inactive) with NCI-H23; 2.17 µM (inactive) in the assay on CAKI-1. The GI50 in the assay on T47D is 6.01 µM (inactive); with COLO 205 it was 12.3 µM (inactive); in the assay on SK-MEL-5, 6.89 µM (inactive); in the assay on Hs-578T, 4.38 µM (inactive); in the assay with DU-145, 14.6 µM (inactive); in the assay with SF-268 it was 4.79 µM (inactive). In addition, the GI50 with K562 is 2.56 µM (inactive).
Take `Nc1ccc(C(=O)N/C(=C\c2cccc([N+](=O)[O-])c2)c2nc3cc(Cl)ccc3[nH]2)cc1`: the GI50 with IGROV-1 is > 100 µM (inactive); in the assay on OVCAR-5, > 100 µM (inactive); in the assay on ACHN it was > 100 µM (inactive); with Malme-3M, > 100 µM (inactive); in the assay with NCI-H23 it was > 100 µM (inactive); in the assay with CAKI-1 it was 77.6 µM (inactive). Also, the GI50 in the assay with COLO 205 was > 100 µM (inactive); with SK-MEL-5 it was > 100 µM (inactive); in the assay with DMS-114, > 100 µM (inactive); in the assay with SF-268 it was 97.7 µM (inactive); in the assay with K562 it was > 100 µM (inactive).
